Source: ChEMBL document CHEMBL1132656, “Design of highly active analogues of the pyrrolo[1,2-a]benzimidazole antitumor agents” (1999)

What was measured:
Mus musculus [1] = assay: The compound was tested for its ability to get to the tumor site after subcutaneous administration [Score of 2 indicates that there is a percent T/C of 50 or < 50(tumor mass 50% or < the control)]; assay type: functional
Mus musculus [2] = species: Mus musculus; assay: The compound was tested for its ability to get to the tumor site after indicates that there is a percent T/C of 50 or < 50(tumor mass 50% or < the control)]; assay type: functional; design: scale not given here

Compound: CC(=O)N[C@H]1CCn2c1nc1c2C(=O)C(C)=C(N2CC2)C1=O
- Subcutaneous score (Mus musculus [1]): 14
- Intraperitonal score (Mus musculus [2]): 38

Compound: CC1=C(N2CC2)C(=O)c2nc3n(c2C1=O)CCC3OC(N)=O (stereo not drawn)
- Subcutaneous score (Mus musculus [1]): 6
- Intraperitonal score (Mus musculus [2]): 24

Compound: CC(=O)NC1CCn2c1nc1c2C(=O)C(C)=C(N2CC2)C1=O (stereo not drawn)
- Subcutaneous score (Mus musculus [1]): 6
- Intraperitonal score (Mus musculus [2]): 46

Compound: CC(=O)OC1CCn2c1nc1c2C(=O)C(C)=C(N2CC2)C1=O (stereo not drawn)
- Subcutaneous score (Mus musculus [1]): 8
- Intraperitonal score (Mus musculus [2]): 40
